The values below come from patent US10561748B2, “Anthranilic acid derivatives” (priority 2014, dated 2020).

The test system of data set [1] is P-gp. As to the kind of experiment: In vivo bio-distribution, microPET/CT brain uptake. Details: species or system mice. How it is done:
A set of wild type mice subjects were injected with compound of formula 1b (i.e. [^18F]-labeled compound of formula 1a). Immediately after injection of the tracer compound, scanning was performed on the subject using a microPET/CT system. The study was conducted in deep anaesthesia (oxygen/1.5-2 isoflurane w/o drug-induction) and the animals were treated by adhering to regulatory, ethical and Animal Welfare guidelines subsequent to obtaining approvals. […] The extraction remained constant for the duration of the study and was indicative of a possible selective binding to brain structures.

Data set [2] in a line: Metabolites (human microsomes), unchanged form. Type of data set: in vitro ADME. The text has this: Metabolites (Human Microsomes)
In data set [3] the test system is P-gp. As to the kind of experiment: Apparent permeability in Caco-2 cells (BA/AB). In kind it is in vitro ADME. The following applies: human, BA/AB >2 = transported by P-gp, read-out: Apparent Permeability (B→A/A→B). In general terms: Caco-2 monolayers are a common model of the intestinal barrier.
Description: Ligands displaying BA/AB >2 are transported while ligands having BA/AB <2 are not transported by P-gp.
Caco-2 cells were seeded onto a Millicell assay system (Millipore), where a cell monolayer is set in between a filter cell and a receiver plate, at a density of 10,000 cells/well. The culture medium was replaced every 48 h and the cells kept for 21 days in culture. The Trans Epithelial Electrical Resistance (TEER) of the monolayers was measured daily, before and after the experiment, using an epithelial voltohometer (Millicell-ERS). Generally, TEER values greater than 1000× for a 21 day culture, are considered optimal. Caco-2 cells were seeded onto a Millicell assay system (Millipore), where a cell monolayer is set in between a filter cell and a receiver plate, at a density of 10,000 cells/well. The culture medium was replaced every 48 h and the cells kept for 21 days in culture. The Trans Epithelial Electrical Resistance (TEER) of the monolayers was measured daily, before and after the experiment, using an epithelial voltohometer (Millicell-ERS). Generally, TEER values greater than 1000× for a 21 day culture, are considered. After 21 days of Caco-2 cell growth, the medium was removed from filter wells and from the receiver plate, which were filled with fresh MSS buffer (Invitrogen). […] The apparent permeability (Papp), in units of nm/s, was calculated.
Data set [4] is described as follows: Protein Plasma Binding (PPB) assay (TRANSIL). To be noted: human serum albumin and human α1 acid glycoprotein (TRANSIL); for fraction unbound: estimation based on human serum albumin and human α1 acid glycoprotein, read-out: fb (fraction bound to plasma proteins) (converted); for Kd: human, read-out: kD (dissociation constant, plasma protein binding). In kind it is in vitro ADME, human. The procedure: (§1) Plasma protein binding is measured in terms of the dissociation constant KD: KD=[compound 1a] [P]/[compound 1a-P], wherein [compound 1a-P] is the concentration of compound of Formula 1a bound to the protein P and where [compound 1a] denotes the free concentration of compound of Formula 1a and [P] denotes the free concentration of protein. […] This means there is high free unbound radiotracer available to bind with the target protein for detection.
(§2) fb represents an estimation of the fraction bound to plasma proteins based on human serum albumin and human α1 acid glycoprotein. Binding to other low abundance plasma proteins like lipoproteins, transcortin, and sex hormone binding protein is not considered.
(§3) The TRANSIL Quality Index (TQI) is based on five independent measures derived from the data analysis. For each individual measure a partial quality score on a scale between 0 and 10 is attributed to the estimate. 0 represents lowest quality, while 10 represents highest quality. The final quality index is a weighted average of the partial quality scores.
(§4) Plasma protein binding is measured in terms of the dissociation constant KD: KD=[TQD]

In data set [5] the test system is plasma proteins based on human serum albumin and human α1 acid glycoprotein. As to the kind of experiment: Protein Plasma Binding (PPB) assay (TRANSIL). Type of data set: in vitro ADME. The following applies: read-out: kD (dissociation constant, plasma protein binding). How it is done:
as §1, §2, §3, §4

In data set [6] the target is T1, P-gp (Homo sapiens, UniProt P08183). As to the kind of experiment: cell-based. The text has this: (§5) • A. Three different cell lines have been employed: MDCK-P-gp (fluorescent probe Calcein-AM), MDCK-BCRP (florescent probe Rhodamine) and MDCK-MRP1 (fluorescent probe Calcein-AM). These cells overexpress stably human P-gp or BCRP or MRP1. • i.
T1 sequence (P08183 whole entry): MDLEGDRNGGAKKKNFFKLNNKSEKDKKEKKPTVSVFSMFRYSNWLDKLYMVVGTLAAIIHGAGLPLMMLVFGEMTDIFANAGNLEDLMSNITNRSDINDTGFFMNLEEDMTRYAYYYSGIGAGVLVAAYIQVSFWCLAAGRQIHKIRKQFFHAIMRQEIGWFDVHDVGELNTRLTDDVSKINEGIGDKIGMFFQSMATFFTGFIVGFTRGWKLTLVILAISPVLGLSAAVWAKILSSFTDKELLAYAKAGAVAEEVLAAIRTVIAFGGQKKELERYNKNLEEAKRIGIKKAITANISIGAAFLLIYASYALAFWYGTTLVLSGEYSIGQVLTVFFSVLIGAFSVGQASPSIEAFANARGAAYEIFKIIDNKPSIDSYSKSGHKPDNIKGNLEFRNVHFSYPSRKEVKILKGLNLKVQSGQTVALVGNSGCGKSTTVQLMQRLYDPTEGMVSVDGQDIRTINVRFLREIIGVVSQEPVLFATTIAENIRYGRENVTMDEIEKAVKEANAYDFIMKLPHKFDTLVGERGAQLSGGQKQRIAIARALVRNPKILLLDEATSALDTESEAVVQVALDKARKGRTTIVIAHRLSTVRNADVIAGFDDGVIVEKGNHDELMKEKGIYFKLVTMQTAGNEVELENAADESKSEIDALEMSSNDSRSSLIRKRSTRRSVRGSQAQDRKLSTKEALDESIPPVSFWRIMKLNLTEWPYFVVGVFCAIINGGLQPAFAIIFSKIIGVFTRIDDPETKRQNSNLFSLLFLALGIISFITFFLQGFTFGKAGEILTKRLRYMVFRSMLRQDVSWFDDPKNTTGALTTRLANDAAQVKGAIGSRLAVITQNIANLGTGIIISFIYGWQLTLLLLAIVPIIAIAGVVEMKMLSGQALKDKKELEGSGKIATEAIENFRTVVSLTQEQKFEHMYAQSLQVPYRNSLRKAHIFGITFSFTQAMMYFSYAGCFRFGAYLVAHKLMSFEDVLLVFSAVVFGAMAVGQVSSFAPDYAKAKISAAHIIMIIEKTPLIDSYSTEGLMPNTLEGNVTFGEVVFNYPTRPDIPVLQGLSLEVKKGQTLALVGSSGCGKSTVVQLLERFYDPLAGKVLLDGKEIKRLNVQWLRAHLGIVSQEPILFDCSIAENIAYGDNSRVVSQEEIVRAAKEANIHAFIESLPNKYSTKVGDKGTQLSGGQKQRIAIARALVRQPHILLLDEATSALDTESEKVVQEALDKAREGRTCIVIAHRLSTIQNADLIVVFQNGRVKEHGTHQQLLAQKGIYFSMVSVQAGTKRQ
The next data set concerns MDCK-MDR1. As to the kind of experiment: Cytotoxicity, MTT assay. Type of data set: cell-based. To be noted: 100 microM. How it is done: Determination of cell growth was performed using the MTT assay at 24 and 48 h. On day 1, 30,000 cells/well were seeded into96-well plates in a volume of 100 μL. On day 2, the various drugs concentration (0.1-100 μM) were added. In all the experiments, the various drug-solvents (ethanol, DMSO) were added in each control to evaluate a possible solvent cytotoxicity. After the established incubation time with compound of Formula 1a, MTT(0.5 mg/mL) was added to each well, and after 3 h incubation at 37° C., the supernatant was removed.
In general terms: Formazan colour is commonly taken as a measure of viable cells.

The next data set deals with T2, MRP1 (Homo sapiens, UniProt P33527).
T2 construct: expressed in transfected cells; host or cells: MDCK-MRP1
T2 sequence (P33527 whole entry): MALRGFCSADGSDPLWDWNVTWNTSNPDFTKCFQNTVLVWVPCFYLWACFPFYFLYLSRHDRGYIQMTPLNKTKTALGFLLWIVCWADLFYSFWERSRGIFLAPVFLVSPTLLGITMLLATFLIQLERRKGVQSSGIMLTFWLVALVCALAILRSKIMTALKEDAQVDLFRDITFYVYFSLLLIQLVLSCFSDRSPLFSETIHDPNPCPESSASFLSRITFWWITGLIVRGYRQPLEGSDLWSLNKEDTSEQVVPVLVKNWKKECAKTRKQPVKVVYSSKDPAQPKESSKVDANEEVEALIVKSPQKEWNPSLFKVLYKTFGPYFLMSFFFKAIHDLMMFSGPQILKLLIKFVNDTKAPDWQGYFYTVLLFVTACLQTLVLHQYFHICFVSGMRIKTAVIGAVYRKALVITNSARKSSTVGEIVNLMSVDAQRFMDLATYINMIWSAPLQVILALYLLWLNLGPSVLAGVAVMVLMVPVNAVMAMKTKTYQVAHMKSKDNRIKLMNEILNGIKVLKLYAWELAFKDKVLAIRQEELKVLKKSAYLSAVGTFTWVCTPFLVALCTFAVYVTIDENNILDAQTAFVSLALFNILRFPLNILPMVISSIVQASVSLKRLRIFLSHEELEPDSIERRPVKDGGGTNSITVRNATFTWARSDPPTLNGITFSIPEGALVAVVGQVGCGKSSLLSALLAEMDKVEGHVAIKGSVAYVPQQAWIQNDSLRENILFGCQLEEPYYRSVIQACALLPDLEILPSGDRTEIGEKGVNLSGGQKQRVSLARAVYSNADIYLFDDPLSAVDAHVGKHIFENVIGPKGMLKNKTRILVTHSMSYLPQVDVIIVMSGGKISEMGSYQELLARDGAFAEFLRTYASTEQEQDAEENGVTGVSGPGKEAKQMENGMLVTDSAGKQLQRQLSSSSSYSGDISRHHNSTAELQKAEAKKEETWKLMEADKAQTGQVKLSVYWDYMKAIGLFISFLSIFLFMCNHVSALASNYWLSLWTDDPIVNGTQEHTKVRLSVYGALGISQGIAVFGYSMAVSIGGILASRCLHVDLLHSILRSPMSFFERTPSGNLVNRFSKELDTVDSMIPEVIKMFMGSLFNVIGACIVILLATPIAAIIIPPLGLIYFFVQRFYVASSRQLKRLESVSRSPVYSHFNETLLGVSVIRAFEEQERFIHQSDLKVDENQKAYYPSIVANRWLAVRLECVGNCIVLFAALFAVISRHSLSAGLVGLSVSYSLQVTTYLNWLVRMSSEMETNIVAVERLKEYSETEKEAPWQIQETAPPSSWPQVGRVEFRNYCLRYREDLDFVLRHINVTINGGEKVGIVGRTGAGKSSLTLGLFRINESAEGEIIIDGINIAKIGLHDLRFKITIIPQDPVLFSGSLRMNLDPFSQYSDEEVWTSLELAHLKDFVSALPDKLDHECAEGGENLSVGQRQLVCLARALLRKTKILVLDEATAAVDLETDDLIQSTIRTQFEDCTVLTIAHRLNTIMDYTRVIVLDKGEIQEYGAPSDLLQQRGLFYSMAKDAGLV
Kind of data set: Activity in MDCK-MRP1 cells, fluorescent probe Calcein-AM. Type of data set: cell-based.
Description: as §5

The next data set addresses T3, BCRP (Homo sapiens, UniProt Q9UNQ0).
T3 construct: expressed in transfected cells; host or cells: MDCK-BCRP
T3 sequence (Q9UNQ0 1-655): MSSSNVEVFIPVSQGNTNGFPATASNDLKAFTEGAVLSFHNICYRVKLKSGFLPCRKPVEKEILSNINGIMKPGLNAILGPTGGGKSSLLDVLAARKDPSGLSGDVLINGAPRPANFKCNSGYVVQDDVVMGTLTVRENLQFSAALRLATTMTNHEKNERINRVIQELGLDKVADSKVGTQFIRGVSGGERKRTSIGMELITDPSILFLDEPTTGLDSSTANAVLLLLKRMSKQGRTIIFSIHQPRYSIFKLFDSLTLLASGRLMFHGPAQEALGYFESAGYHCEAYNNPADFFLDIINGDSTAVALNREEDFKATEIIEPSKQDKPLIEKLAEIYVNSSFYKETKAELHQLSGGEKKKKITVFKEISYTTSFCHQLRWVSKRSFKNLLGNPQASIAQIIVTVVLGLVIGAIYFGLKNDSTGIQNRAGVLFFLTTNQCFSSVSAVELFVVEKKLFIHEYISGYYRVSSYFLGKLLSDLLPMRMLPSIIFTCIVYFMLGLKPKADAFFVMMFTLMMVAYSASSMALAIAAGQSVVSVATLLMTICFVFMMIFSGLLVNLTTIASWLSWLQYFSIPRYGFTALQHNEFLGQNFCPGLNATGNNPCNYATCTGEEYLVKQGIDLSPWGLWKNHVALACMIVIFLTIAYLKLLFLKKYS
Kind of data set: Activity in MDCK-BCRP cells, fluorescent probe Rhodamine. In kind it is cell-based.
Description: as §5

For data set [7], the target named is T1, P-gp. As to the kind of experiment: ATP-ase cell depletion (luminescence) in MDCK-MDR1 cells. Type of data set: cell-based. On the set-up: expressed in transfected cells; host or cells: MDCK-P-gp (MDCK cells stably overexpressing human P-gp). The following applies: at 1 μM, 2 h. The procedure:
In order to establish the intrinsic mechanism of compound of Formula la in […] has been defined if it was able to deplete ATP. Compound able to deplete ATP can be considered P-gp substrate while ligand unable to deplete ATP is considered P-gp inhibitor.
The MDCK-MDR1 cells were seeded into 96-well microplate in 100 μL of complete medium at a density 2×10^4 cells/well. The plate was incubated overnight in a humidified atmosphere 5% CO2 at 37° C. The medium was removed and 100 μL of complete medium in the presence or absence of different concentrations of compound of Formula 1a was added. The plate was incubated for 2 h in a humidified atmosphere 5% CO2 at 37° C. Fifty microlitres of mammalian cell lysis solution was added to all wells and the plate was shaken for 5 min in an orbital shaker. Fifty microlitres of substrate solution was added to all wells and the plate was shaken for 5 min in an orbital shaker. The plate was dark adapted for 10 min and the luminescence was measured.

Data set [8] in a line: Everted gut sac: crossing to mucosal compartment and stability. Type of data set: in vitro ADME. The procedure: The compound of Formula la has been inserted in serosal compartment of […] and for 120 mins has been tested: • 1. The concentration in mucosal compartment • 2. The stability in serosal/mucosal compartment
Data set [9] can be described thus: Metabolic stability by rat liver microsomes. Type of data set: in vitro ADME. The procedure:
Metabolic stability of compound of Formula la was evaluated by incubating test compounds with rat liver microsomes and monitoring parent disappearance within 30 mins using HPLC.
• Column: KINE IEX-C18 • Column temperature: 40° C. • Mobile phase: Gradient. A was 0.1% formic acid in water. B was MeCN. A:B 95:5 to 30:70 over 10 min, to 20:80 over 5 min. • Flow rate: 0.5 ml/min • Injection volume: 50 μL
FIG. 5 illustrated a Chromatogram of Formula la incubated with microsomes fraction only without NADPH regenerating system wherein 489.88 mAU*s represents ligand concentration after incubation Ccontrol. FIG. 6 illustrates a Chromatogram of compound of Formula 1a incubated in the presence of microsomes and NADPH regenerating system wherein 429.56 mAU*s represents ligand concentration Cparent.
For orientation: Liver microsomes are a subcellular fraction often used to study metabolism.

The target in data set [10] is T1, P-gp. On the set-up: expressed in transfected cells; host or cells: MDCK-P-gp (MDCK cells stably overexpressing human P-gp). The following applies: literature value; read-out: EC50 as reported in Kazunori Kawamura, et al.; cited from earlier work.

Where two headings read alike, the source gives them in different places.

In the case of `COc1cc(NC(=O)c2cnc3ccccc3c2)c(C(=O)Nc2ccc(CCN3CCc4cc(OCC[18F])c(OC)cc4C3)cc2)cc1OC` [Formula 1b], the “Brain uptake (microPET)” value was “same reduction of uptake at brain level” with P-gp [1] (P-gp knock-out mice (MDR 1a/b −/−)); “strongly reduced” with P-gp [1] (wild type mice, co-injection of tariquidar); “binding of radiolabeled compound of formula 1b at brain level” in the data set with P-gp [1] (wild type mice, tracer alone).

The term Kd denotes a measure of binding affinity in units of concentration. One may read the EC50 as the concentration that produces a half-maximal response. In the case of `COc1cc(NC(=O)c2cnc3ccccc3c2)c(C(=O)Nc2ccc(CCN3CCc4cc(OCCF)c(OC)cc4C3)cc2)cc1OC` [Formula 1a, N-(2-((4-(2-(6-(2-fluoroethoxy)-7-methoxy-3,4-dihydroisoquinolin-2(1H)-yl)ethyl)phenyl)carbamoyl)-4,5-dimethoxyphenyl)quinoline-3-carboxamide], the “Unchanged form (%)” value in data set [2] (after 30 min) was 91%; in [2] (after 60 min), 85%. Besides, in the data set with P-gp [3], the efflux ratio at 120 min came out at 16 ± 0.7. The fraction unbound in data set [4] was 0.539. Besides, the Kd in data set [4] and in data set [5] was 717 µM in each case. The EC50 is 0.008 µM at P-gp [6], greater than 0.5 µM at MRP1 and greater than 0.5 µM at BCRP. Besides, the “P-gp EC50” value on P-gp [6] is on record as 8,0±0.2 nM. The “Cytotoxicity (MTT)” value is 5% in the data set on MDCK-MDR1 (24 h) and 15% with MDCK-MDR1 (48 h). This compound also yielded an ATP-ase cell depletion at P-gp [7] of 20%. Also, the “Stability in serosal compartment” value in [8] (after 60 min) turned out to be 83%; in [8] (after 120 min), 75%. In [8] (inserted in serosal compartment, 120 mins), the “Crossing into the mucosal compartment” value was “unable to cross into the mucosal compartment”. Also, in [9], the “% remaining at 30 min” value was determined as 88%.

Consider `COc1cc2c(cc1OC)CN(CCc1ccc(NC(=O)c3cc(OC)c(OC)cc3NC(=O)c3cnc4ccccc4c3)cc1)CC2` [Tariquidar, reference compound], for which the fraction unbound in [4] was 0.095. Further, the Kd in data set [4] came to 64.7 µM. Moreover, the “P-gp EC50” value on P-gp [6] is 4,0±0.2 nM. In addition, the figures for the EC50 at P-gp [10], at MRP1 and at BCRP were 0.024 µM, greater than 0.5 µM and greater than 0.08 µM, respectively. In addition, the “Cytotoxicity (MTT)” value in the data set with MDCK-MDR1 (24 h) amounted to 8%; with MDCK-MDR1 (48 h), 19%. The ATP-ase cell depletion at P-gp [7] was found to be 30%.
